Assay results published in PubChem BioAssay (NCI).
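In this assay, cells in 96-well plates receive the compound at five concentrations for 48 hours. Endpoints are linearly interpolated between the surrounding concentrations. GI50 = concentration required for 50% inhibition of growth. TGI marks complete inhibition of growth.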

Experiments:
Test in all cases: DTP human tumour cell line panel, 48 h
[1] = test system: SK-MEL-2 melanoma
[2] = test system: HOP-92 NSCLC
[3] = test system: SK-MEL-5 melanoma
[4] = test system: MDA-MB-231 breast
[5] = test system: U251 CNS
[6] = test system: OVCAR-5 ovarian
[7] = test system: NCI-H23 lung
[8] = test system: HS 578T breast
[9] = test system: RXF 393 renal

Row | SMILES | GI50 [1] [µM] | TGI [1] [µM] | GI50 [2] [µM] | TGI [2] [µM] | GI50 [3] [µM] | TGI [3] [µM] | TGI [4] [µM] | TGI [5] [µM] | TGI [6] [µM] | TGI [7] [µM] | TGI [8] [µM] | TGI [9] [µM]
1 | CCN1CCN(Cc2ccc(NC(=O)Nc3ccc(-n4ccc5c(NC(=O)c6ccccc6)nccc54)cc3)cc2C(F)(F)F)CC1 | 3.62 | > 100 | 13.3 | 59.6 | 0.764 | 2.02 |  |  |  |  |  | 
2 | C=C1CC(COc2ccc3c(C)c(C)c(=O)oc3c2C)(c2ccccc2)OC1=O (centres undefined) |  | 3.91 |  | 2.96 |  | 3.23 | 7.86 | 20.3 | 25.1 | 4.64 | 13 | 
3 | N#Cc1nc(C2CCC(=O)O2)oc1N (centres undefined) |  | > 100 |  |  |  | > 100 | > 100 | > 100 | > 100 | > 100 | > 100 | > 100
4 | O=C(OC12CC3CC(CC(C3)C1)C2)c1ccc(NCc2cc(O)ccc2O)cc1 |  | 3.57 |  | 2.07 |  | 3.74 | 5.87 | 2.69 | 4.59 | 3.8 | 4.41 | 1.02
5 | O=C(O)C1=NN(c2ccc(S(=O)(=O)O)cc2)C2(C1)C(Cl)C(=O)N2c1nc2ccccc2s1 (centres undefined) |  | 32 |  | 48.8 |  | 25.6 | 37.5 | 32.1 | 32.8 | 30.2 | > 100 | 34.8
6 | Clc1ccc(OCc2nnc(COc3ccc(OCc4nnc(COc5ccc(Cl)cc5Cl)o4)c(Cl)c3)o2)c(Cl)c1 |  | > 100 |  | 33.5 |  | > 100 | 63.1 | 54.7 | > 100 | > 100 | > 100 | 59.6
7 | O=C(Sc1c(-c2ccccc2)c(=O)n(-c2ccccc2)c(=S)n1-c1ccccc1)c1ccco1 |  | > 100 |  | > 92.6 |  | > 100 | > 100 | > 100 | > 100 | > 100 | > 100 | > 100
8 | C[N+]1(CCN=C=NC2CCCCC2)CCOCC1 |  | > 100 |  | > 100 |  | > 100 | > 100 | > 100 | > 100 | > 100 | > 100 | > 100
9 | CC(=O)N(C)c1ccc(Nc2ccnc3ccc4nn(C)nc4c23)cc1 |  | 45.7 |  |  |  | 37.6 |  | > 100 | 94.1 | 82.1 | 53.2 | 48.1
10 | COc1ccc(OC/C(N=Cc2ccncc2)=N/NC(=O)c2ccncc2)cc1 |  | > 100 |  | 96.4 |  |  | > 100 | > 100 | > 100 | > 100 | > 100 | > 100
11 | O=P1(C(O)/C=C/c2ccccc2)N(Cc2ccccc2)[C@@H]2CCCC[C@H]2N1Cc1ccccc1 (some centres undefined) |  | 6.17 |  | 7.48 |  | 16.4 | 26.2 | 16.5 | 31.5 | 21.5 | 10.6 | 23.5
12 | Cc1ccc2c(c1C)CC1(Cc3c(C)ccc(C)c3C1=O)C2=O (centres undefined) |  |  |  | > 100 |  | > 100 | > 100 | > 100 | > 100 | > 100 | > 100 | > 100
